Molecular target: T1, human PDE9A2 (Homo sapiens, UniProt O76083)
T1 construct: made in house; host or cells: Sf9 insect cells (infected; crude lysate used as enzyme source)
Assay: PDE9A2 enzymatic activity assay (scintillation proximity assay)
Format: biochemical
Details: for IC50: specific IC50 value is within the given range
Procedure: The PDE9A2 enzymatic activity assay was run as scintillation proximity assay (SPA), in general according to the protocol of the manufacturer (Amersham Biosciences, product number: TRKQ 7100).
As enzyme source, lysate (PBS with 1% Triton X-100 supplemented with protease inhibitors, cell debris removed by centrifugation at 13.000 rpm for 30 min) of SF 9 cell expressing the human PDE9A2 was used. The total protein amount included in the assay varied upon infection and production efficacy of the SF9 cells and lay in the range of 0.1-100 ng.
In general, the assay conditions were as follows: • total assay volume: 40 microliter • protein amount: 0.1-50 ng • substrate concentration (cGMP): 20 nanomolar; ˜1 mCi/1 • incubation time: 60 min at room temperature • final DMSO concentration: 0.2-1
The assays were run in 384-well format. The test reagents as well as the enzyme and the substrate were diluted in assay buffer. The assay buffer contained 50 mM Tris, 8.3 mM MgCl2, 1.7 mM EGTA, 0.1% BSA, 0.05% Tween 20; the pH of assay buffer was adjusted to 7.5. The reaction was stopped by applying a PDE9 specific inhibitor (e.g. compounds according to WO04099210 or WO04099211) in excess.
The activity of the positive control (minus the negative control=background) is set to 100% and activity in the presence of test compound is expressed relative to these 100%. Within this setting, an inhibition above 100% might be possible due to the nature of the variation of the positive control within the assay. In the following inhibition of PDE 9A2 is presented for a concentration at 10 μM, if not indicated otherwise.
IC50 can be calculated with GraphPadPrism or other suited software setting the positive control as 100 and the negative control as 0. For calculation of IC50 dilutions of the test compounds (substrates) are to be selected and tested following the aforementioned protocol.

[1] = read-out: % Inhibition of PDE 9A2

T1 sequence (O76083 1-533 isoform O76083-2): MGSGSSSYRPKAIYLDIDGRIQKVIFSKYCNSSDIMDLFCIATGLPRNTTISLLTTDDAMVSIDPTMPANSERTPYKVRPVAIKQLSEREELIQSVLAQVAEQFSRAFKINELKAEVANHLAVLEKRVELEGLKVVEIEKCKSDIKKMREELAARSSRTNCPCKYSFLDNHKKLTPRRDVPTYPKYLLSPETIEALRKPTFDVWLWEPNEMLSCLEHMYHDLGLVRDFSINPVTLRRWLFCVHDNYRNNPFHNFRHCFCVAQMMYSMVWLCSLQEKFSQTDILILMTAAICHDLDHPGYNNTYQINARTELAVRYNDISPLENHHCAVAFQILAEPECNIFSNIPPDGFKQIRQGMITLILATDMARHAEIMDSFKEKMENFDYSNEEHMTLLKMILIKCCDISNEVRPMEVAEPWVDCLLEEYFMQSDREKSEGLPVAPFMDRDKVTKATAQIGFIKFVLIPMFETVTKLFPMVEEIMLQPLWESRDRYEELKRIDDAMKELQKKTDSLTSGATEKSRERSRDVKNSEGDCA

SMILES | inhibition at 10 µM [1] [%] | IC50 [nM] | inhibition at 3.3 µM (at 3.3 μM, read-out: % Inhibition of PDE 9A2) [%] | inhibition at 1 µM (at 1 μM, read-out: % Inhibition of PDE 9A2) [%]
O=c1[nH]c(Cc2ccccc2CCO)nc2c1cnn2C1CCC(F)(F)CC1 [Example 83] | 88 | 101 to 1500 |  | 
O=c1[nH]c(CC2CCC(F)(F)CC2)nc2c1cnn2C1CCC(F)(F)CC1 [Example 34] | 96 | 101 to 1500 |  | 
O=c1[nH]c(Cc2ccc(F)cc2Br)nc2c1cnn2C1CCC(F)(F)CC1 [Example 44] | 92 | 101 to 1500 |  | 
O=C(Cc1ccccc1Cc1nc2c(cnn2C2CCC(F)(F)CC2)c(=O)[nH]1)N1CCOCC1 [Example 82] | 91 | 101 to 1500 |  | 
O=C(NC1CCCC(n2ncc3c(=O)[nH]c(CC4CCCC4)nc32)C1)c1ccccc1 (racemic) [Example 51] | 98 | 101 to 1500 |  | 
COC1CCCCC1n1ncc2c(=O)[nH]c(CC3CC3)nc21 (racemic) [Example 11] | 89 | 101 to 1500 |  | 
O=c1[nH]c(Cc2ccccn2)nc2c1cnn2C1CCC(F)CC1 (stereo not drawn) [Example 109] | 93 |  |  | 
O=C(O)Cc1ccccc1Cc1nc2c(cnn2C2CCC(F)(F)CC2)c(=O)[nH]1 [Example 38] | 85 | 101 to 1500 |  | 
COc1cc(-c2cc(F)ccc2Cc2nc3c(cnn3C3CCC(F)(F)CC3)c(=O)[nH]2)ccn1 [Example 59] | 95 | 101 to 1500 |  | 
O=C(NC1CCCC(n2ncc3c(=O)[nH]c(Cc4ccccc4OC(F)(F)F)nc32)C1)c1ccccc1 (mixture of isomers) [Example 85] | 94 | 101 to 1500 |  | 
O=c1[nH]c(C(F)c2ccccc2-c2ccncc2)nc2c1cnn2C1CCC(F)(F)CC1 (racemic) [Example 72-10] |  | 101 to 1500 | 52 | 
O=c1[nH]c(C(F)c2ccccc2-n2cccn2)nc2c1cnn2C1CCC(F)(F)CC1 (racemic) [Example 88] | 93 | 101 to 1500 |  | 
CC(=O)NC1CCCC(n2ncc3c(=O)[nH]c(CC4CCCC4)nc32)C1 (racemic) [Example 50] | 95 | 101 to 1500 |  | 
Cc1nc(-c2ccccc2Cc2nc3c(cnn3C3CCC(F)(F)CC3)c(=O)[nH]2)n[nH]1 [Example 99] | 100 | 1 to 100 |  | 
O=c1[nH]c(Cc2cc(F)ccc2-n2cccn2)nc2c1cnn2C1CCC(F)(F)CC1 [Example 89] | 98 | 1 to 100 |  | 
CC1(C)CC(Cc2nc3c(cnn3C3CCC(F)(F)CC3)c(=O)[nH]2)CO1 (racemic) [Example 52] | 98 | 1 to 100 |  | 
CC(Cc1nc2c(cnn2C2CCC(F)(F)CC2)c(=O)[nH]1)C(F)(F)F (single isomer, unassigned) [Example 47] | 98 | 1 to 100 |  | 
Nc1ccccc1Cc1nc2c(cnn2C2CCC(F)(F)CC2)c(=O)[nH]1 [Example 107] | 100 | 1 to 100 |  | 
Cc1ccc(-c2ccccc2Cc2nc3c(cnn3C3CCC(F)(F)CC3)c(=O)[nH]2)o1 [Example 93] | 94 | 1 to 100 |  | 

SMILES | inhibition at 10 µM [1] [%] | IC50 [nM] | inhibition at 3.3 µM (at 3.3 μM, read-out: % Inhibition of PDE 9A2) [%] | inhibition at 1 µM (at 1 μM, read-out: % Inhibition of PDE 9A2) [%]
O=c1[nH]c(Cc2ccccc2-n2cccn2)nc2c1cnn2C1CCC(F)(F)CC1 [Example 95] | 97 | 1 to 100 |  | 
NC1CCCC(n2ncc3c(=O)[nH]c(Cc4ccccc4OC(F)(F)F)nc32)C1 (racemic) [Example 87] | 81 | 101 to 1500 |  | 
COc1cccc(Cl)c1Cc1nc2c(cnn2C2CCC(F)(F)CC2)c(=O)[nH]1 [Example 37] | 97 | 1 to 100 |  | 
COC(=O)Cc1ccccc1Cc1nc2c(cnn2C2CCC(F)(F)CC2)c(=O)[nH]1 [Example 84] | 81 | 101 to 1500 |  | 
O=c1[nH]c(C(F)c2ccccc2-n2cccn2)nc2c1cnn2C1CCC(F)(F)CC1 (single isomer, unassigned) [Example 92] | 93 | 101 to 1500 |  | 
CC(C)Cc1nc2c(cnn2C2CCC(F)CC2)c(=O)[nH]1 (stereo not drawn) [Example 112] | 97 | 1 to 100 |  | 
N#Cc1ccc(-c2ccc(F)cc2Cc2nc3c(cnn3C3CCC(F)(F)CC3)c(=O)[nH]2)cc1 [Example 72-6] |  | 1 to 100 |  | 96
Cc1cccnc1Cc1nc2c(cnn2C2CCC(F)CC2)c(=O)[nH]1 (stereo not drawn) [Example 110] | 95 |  |  | 
Cc1ccn(-c2ccccc2Cc2nc3c(cnn3C3CCC(F)(F)CC3)c(=O)[nH]2)n1 [Example 106] | 83 | 1 to 100 |  | 
CCCC1OCCCC1Cc1nc2c(cnn2C2CCC(F)(F)CC2)c(=O)[nH]1 (racemic) [Example 24] | 98 | 101 to 1500 |  | 
CCC(CC)Cc1nc2c(cnn2C2CCC(F)(F)CC2)c(=O)[nH]1 [Example 21] | 103 | 1 to 100 |  | 
CC(Cc1nc2c(cnn2C2CCC(F)(F)CC2)c(=O)[nH]1)C(=O)N1CCCCC1 (stereo not drawn) [Example 39] | 84 | 101 to 1500 |  | 
O=c1[nH]c(Cc2ccccc2-n2cccc2)nc2c1cnn2C1CCC(F)(F)CC1 [Example 104] | 97 | 1 to 100 |  | 
O=c1[nH]c(Cc2ccccc2Br)nc2c1cnn2C1CCC(F)(F)CC1 [Example 33] | 98 | 1 to 100 |  | 
COc1ccc(-c2ccccc2Cc2nc3c(cnn3C3CCC(F)(F)CC3)c(=O)[nH]2)cn1 [Example 56] | 99 | 1 to 100 |  | 
COc1cccnc1Cc1nc2c(cnn2C2CCC(F)(F)CC2)c(=O)[nH]1 [Example 100] | 95 | 101 to 1500 |  | 
O=c1[nH]c(CC2CC2)nc2c1cnn2C1CCC(F)(F)CC1 [Example 2] | 101 | 1 to 100 |  | 
CC1(C)CC(Cc2nc3c(cnn3C3CCC(F)(F)CC3)c(=O)[nH]2)CO1 (single isomer, unassigned) [Example 77] | 100 | 1 to 100 |  | 

More lines, now with the values ahead:

inhibition at 10 µM [1] [%] | IC50 [nM] | inhibition at 3.3 µM (at 3.3 μM, read-out: % Inhibition of PDE 9A2) [%] | inhibition at 1 µM (at 1 μM, read-out: % Inhibition of PDE 9A2) [%] | SMILES
98 | 1 to 100 |  |  | Cc1ccc(-c2ccccc2Cc2nc3c(cnn3C3CCC(F)(F)CC3)c(=O)[nH]2)cn1 [Example 73]
100 | 1 to 100 |  |  | CCOC(=O)NC1CCCC(n2ncc3c(=O)[nH]c(Cc4ccccc4OC(F)(F)F)nc32)C1 (mixture of isomers) [Example 19]
100 | 1 to 100 |  |  | COc1cc(-c2ccccc2Cc2nc3c(cnn3C3CCC(F)(F)CC3)c(=O)[nH]2)ccn1 [Example 55]
101 | 1 to 100 |  |  | COc1cncc(-c2ccc(F)cc2Cc2nc3c(cnn3C3CCC(F)(F)CC3)c(=O)[nH]2)c1 [Example 58]
111 | 1 to 100 |  |  | Cc1ncn(-c2ccccc2Cc2nc3c(cnn3C3CCC(F)(F)CC3)c(=O)[nH]2)n1 [Example 95-1]
99 | 1 to 100 |  |  | COc1ccc(-c2ccc(F)cc2Cc2nc3c(cnn3C3CCC(F)(F)CC3)c(=O)[nH]2)cc1 [Example 72-5]
100 | 1 to 100 |  |  | CCC(Cc1nc2c(cnn2C2CCC(F)(F)CC2)c(=O)[nH]1)C(F)(F)F (single isomer, unassigned) [Example 101]
104 | 1 to 100 |  |  | CCCc1nc2c(cnn2C2CCC(F)(F)CC2)c(=O)[nH]1 [Example 22]
94 | 1 to 100 |  |  | Cc1cccnc1Cc1nc2c(cnn2C2CCC(F)(F)CC2)c(=O)[nH]1 [Example 35]
103 | 1 to 100 |  |  | O=c1[nH]c(C(F)c2ccccc2)nc2c1cnn2C1CCC(F)(F)CC1 (racemic) [Example 25]
102 | 1 to 100 |  |  | O=c1[nH]c(CC2CCCC2)nc2c1cnn2C1CCCC1O (mixture of isomers) [Example 10]
100 | 1 to 100 |  |  | NC(=O)c1ccc(-c2cc(F)ccc2Cc2nc3c(cnn3C3CCC(F)(F)CC3)c(=O)[nH]2)cn1 [Example 62]
98 | 1 to 100 |  |  | O=c1[nH]c(Cc2cccc(C(F)(F)F)c2)nc2c1cnn2C1CCC(F)(F)CC1 [Example 6]
97 | 1 to 100 |  |  | CC(C)Cc1nc2c(cnn2C2CCC(F)(F)CC2)c(=O)[nH]1 [Example 9]
93 | 1 to 100 |  |  | O=c1[nH]c(Cc2ncccc2-n2cccn2)nc2c1cnn2C1CCC(F)(F)CC1 [Example 96]
99 | 1 to 100 |  |  | COc1ccc(F)cc1Cc1nc2c(cnn2C2CCC(F)(F)CC2)c(=O)[nH]1 [Example 48-4]
99 | 1 to 100 |  |  | CC(=O)NC1CCCC(n2ncc3c(=O)[nH]c(Cc4ccccc4OC(F)(F)F)nc32)C1 (mixture of isomers) [Example 49]
100 | 1 to 100 |  |  | O=c1[nH]c(Cc2cc(F)ccc2-c2ccc(F)nc2)nc2c1cnn2C1CCC(F)(F)CC1 [Example 72-7]
